One data set has as its target T1, 5-HT2C receptor (Homo sapiens, UniProt P28335).
T1 construct: host or cells: U2OS
In words: Human 5-HT2C functional assay (beta-arrestin2 recruitment, U2OS_HTR2C_β-Arrestin cells). The format is cell-based. The settings on record: for EC50: beta-arrestin2 recruitment, U2OS_HTR2C_β-Arrestin cells, 1.5 h incubation, read-out: EC50 5-HT2C (potency in functional assay); for Emax: relative efficacy vs response to 10 μM 5-HT or maximal 5-HT effect (100%). In outline:
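U2OS cells expressing HTR2C with β-galactosidase complementation, switched to 1% serum medium 24 h post-plating, were treated next day with compound for 1.5 h; chemiluminescence read. Response expressed as % of 10 µM 5-HT or maximal 5-HT effect; EC50 from 4-parameter variable-slope fit.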
(Activated receptors often draw arrestin, which recruitment assays turn into a signal.)

The nature of data set [1]: Metabolic stability in human liver microsomes, unbound intrinsic clearance (Cl int/fu mic). The settings on record: 0.5 μM compound, NADPH; for CLint scaled at 0.5 μM: pH 7.4, human liver microsomes 0.25 mg/mL, read-out: Cl int, mic unb. (h) [l/h/kg] (unbound intrinsic clearance, human). Type of data set: in vitro ADME. In outline: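 Compound (0.5 µM) was incubated with human liver microsomes (0.25 mg/mL) in pH 7.4 phosphate buffer at 37 °C with 1.0 mM NADPH, sampling from 0–30 min. Depletion was followed by LC-MS/MS, and CLint was derived from first-order t1/2 per mg protein. Microsomal unbound fraction came from 4 h equilibrium dialysis at 37 °C, giving CLint/fu mic.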
A general note: Liver microsomes are a subcellular fraction often used to study metabolism.

Structures can show the parent of a compound that is named as a salt. Where two headings read alike, the source gives them in different places.

In general, EC50 refers to the midpoint of the concentration-response curve. By Emax is commonly meant the maximal effect, on the per cent scale that the assay sets.

T1 sequence (P28335 33-458): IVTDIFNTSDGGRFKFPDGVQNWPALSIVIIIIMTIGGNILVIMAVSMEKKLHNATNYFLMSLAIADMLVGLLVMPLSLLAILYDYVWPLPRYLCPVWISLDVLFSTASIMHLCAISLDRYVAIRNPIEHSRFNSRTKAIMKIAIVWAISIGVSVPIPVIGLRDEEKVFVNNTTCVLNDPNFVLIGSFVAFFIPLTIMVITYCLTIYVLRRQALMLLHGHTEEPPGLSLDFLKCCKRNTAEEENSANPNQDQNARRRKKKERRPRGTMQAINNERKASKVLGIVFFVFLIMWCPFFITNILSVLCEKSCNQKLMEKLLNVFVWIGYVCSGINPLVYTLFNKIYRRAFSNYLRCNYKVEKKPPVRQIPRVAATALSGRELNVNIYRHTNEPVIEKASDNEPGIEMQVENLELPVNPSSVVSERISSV
T1 sequence (P32121 whole entry partner): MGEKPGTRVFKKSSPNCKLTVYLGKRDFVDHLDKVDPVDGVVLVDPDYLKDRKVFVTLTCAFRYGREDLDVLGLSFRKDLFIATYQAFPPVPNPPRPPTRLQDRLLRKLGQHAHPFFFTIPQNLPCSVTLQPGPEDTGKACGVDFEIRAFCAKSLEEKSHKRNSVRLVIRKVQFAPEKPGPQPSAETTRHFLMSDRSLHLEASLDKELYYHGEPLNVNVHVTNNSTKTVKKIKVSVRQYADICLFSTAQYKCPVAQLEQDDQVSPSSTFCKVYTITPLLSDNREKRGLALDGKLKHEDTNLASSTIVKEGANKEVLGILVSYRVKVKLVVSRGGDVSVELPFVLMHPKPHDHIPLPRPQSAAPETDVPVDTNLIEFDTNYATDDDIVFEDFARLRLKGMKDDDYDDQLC

Regarding `COc1nc(OC2CC(F)(F)C2(F)F)c(F)cc1CNC(=O)[C@@H]1CCCN1` (stereo partly drawn) [Example 112, (2S)—N-[[5-Fluoro-2-methoxy-6-(2,2,3,3-tetrafluorocyclobutoxy)-3-pyridyl]methyl]pyrrolidine-2-carboxamide; 2,2,2-trifluoroacetic Acid], at 5-HT2C receptor, the concentration giving a half-maximal response (EC50) was less than 20 nM and the maximum response (Emax) was greater than 70%. Further, the CLint scaled at 0.5 μM in data set [1] (human, liver microsomes) was less than 5 L/h/kg.
As to `COc1nc(OCC(F)(F)F)c(F)cc1CN(C)C(=O)[C@@H]1CCCN1C` [Example 113, (2S)—N-[[5-Fluoro-2-methoxy-6-(2,2,2-trifluoroethoxy)-3-pyridyl]methyl]-N,1-dimethyl-pyrrolidine-2-carboxamide Hydrochloride], at 5-HT2C receptor, the EC50 lay in the range of 200 to 1000 nM and the maximal response (Emax) was in the range of 30 to 50%. For the same molecule, in data set [1] (human, liver microsomes), the CLint scaled at 0.5 μM is less than 5 L/h/kg.
The matching figures for `COc1nc(OC2CCC(F)(F)CC2)c(F)cc1CN(C)C(=O)[C@@H]1CCCN1` [Example 114, (2S)—N-[[6-(4,4-Difluorocyclohexoxy)-5-fluoro-2-methoxy-3-pyridyl]methyl]-N-methyl-pyrrolidine-2-carboxamide Hydrochloride]: less than 20 nM, greater than 70% and 5 to 50 L/h/kg.
With `COc1nc(OCC2CC(F)(F)C2)c(F)cc1CN(C)C(=O)[C@@H]1CCCN1` [Example 115, (2S)—N-[[6-[(3,3-Difluorocyclobutyl)methoxy]-5-fluoro-2-methoxy-3-pyridyl]-methyl]-N-methyl-pyrrolidine-2-carboxamide Hydrochloride], on 5-HT2C receptor, the EC50 was less than 20 nM and the Emax lay in the range of 50 to 70%. Also, the CLint scaled at 0.5 μM in data set [1] (human, liver microsomes) was less than 5 L/h/kg.
For `COc1nc(O[C@H]2CC[C@H](C(F)(F)F)CC2)c(F)cc1CN(C)C(=O)[C@@H]1CCCN1` [Example 116, (2S)—N-[[5-Fluoro-2-methoxy-6-[trans-4-(trifluoromethyl)cyclohexoxy]-3-pyridyl]methyl]-N-methyl-pyrrolidine-2-carboxamide Hydrochloride], in that order: 20 to 200 nM, 50 to 70% and 5 to 50 L/h/kg.
Take `COc1nc(OCC(F)(F)C(F)(F)C(F)(F)F)c(F)cc1CN(C)C(=O)[C@@H]1CCCN1` [Example 117, (2S)—N-[[5-Fluoro-6-(2,2,3,3,4,4,4-heptafluorobutoxy)-2-methoxy-3-pyridyl]-methyl]-N-methyl-pyrrolidine-2-carboxamide Hydrochloride]: on 5-HT2C receptor, the EC50 is less than 20 nM and the maximal effect (Emax) was 50 to 70%. The CLint scaled at 0.5 μM in data set [1] is 5 to 50 L/h/kg.
In the case of `COc1nc(OC2CCC3(CC2)CC3(F)F)c(F)cc1CNC(=O)[C@@H]1CCCN1` (stereo partly drawn) [Example 118, (2S)—N-[[6-(2,2-Difluorospiro[2.5]octan-6-yl)oxy-5-fluoro-2-methoxy-3-pyridyl]methyl]pyrrolidine-2-carboxamide; 2,2,2-trifluoroacetic Acid], at 5-HT2C receptor, the EC50 is less than 20 nM and the Emax was greater than 70%. Besides, in data set [1] (human, liver microsomes), the CLint scaled at 0.5 μM is 5 to 50 L/h/kg.
For `COc1nc(O[C@H]2CC[C@@H](C(F)(F)F)CC2)c(F)cc1CN(C)C(=O)[C@@H]1CCCN1` [Example 119, (2S)—N-[[5-Fluoro-2-methoxy-6-[cis-4-(trifluoromethyl)cyclohexoxy]-3-pyridyl]-methyl]-N-methyl-pyrrolidine-2-carboxamide hydrochloride], in that order: 20 to 200 nM, greater than 70% and 5 to 50 L/h/kg.
The matching figures for `COc1nc(-c2ccccc2)c(F)cc1CNC(=O)[C@@H]1CCCN1` [Example 125, (2S)—N-[(5-Fluoro-2-methoxy-6-phenyl-3-pyridyl)methyl]pyrrolidine-2-carboxamide; 2,2,2-trifluoroacetic Acid]: 200 to 1000 nM, greater than 70% and 5 to 50 L/h/kg.
As to `COc1nc(NC2CCC(F)(F)CC2)c(F)cc1CNC(=O)[C@@H]1CCCN1` [Example 126, (2S)—N-[[6-[(4,4-Difluorocyclohexyl)amino]-5-fluoro-2-methoxy-3-pyridyl]methyl]pyrrolidine-2-carboxamide; 2,2,2-trifluoroacetic Acid], at 5-HT2C receptor, the EC50 is less than 20 nM and the Emax was greater than 70%. Moreover, the CLint scaled at 0.5 μM in data set [1] (human, liver microsomes) was less than 5 L/h/kg.
As for `COc1nc(C2CC2)c(F)cc1CNC(=O)[C@@H]1CCCN1` [Example 127, (2S)—N-[(6-Cyclopropyl-5-fluoro-2-methoxy-3-pyridyl)methyl]pyrrolidine-2-carboxamide; 2,2,2-trifluoroacetic Acid], at 5-HT2C receptor, the EC50 is 200 to 1000 nM and the maximal response (Emax) is greater than 70%. Moreover, in data set [1] (human, liver microsomes), the CLint scaled at 0.5 μM fell in the range of 5 to 50 L/h/kg.
On to `COc1nc(N2CCCCC2)c(F)cc1CNC(=O)[C@@H]1CCCN1` [Example 128, (2S)—N-[[5-Fluoro-2-methoxy-6-(1-piperidyl)-3-pyridyl]methyl]pyrrolidine-2-carboxamide], for which, on 5-HT2C receptor, the half-maximal effective concentration (EC50) fell in the range of 20 to 200 nM and the maximal effect (Emax) was greater than 70%. In addition, in data set [1] (human, liver microsomes), the CLint scaled at 0.5 μM is less than 5 L/h/kg.
For the molecule `COc1nc(NC2CCC(C(F)(F)F)CC2)c(F)cc1CNC(=O)[C@@H]1CCCN1` (stereo partly drawn) [Example 130, (2S)—N-[[5-Fluoro-2-methoxy-6-[[4-(trifluoromethyl)cyclohexyl]amino]-3-pyridyl]methyl]pyrrolidine-2-carboxamide], on 5-HT2C receptor, the EC50 is less than 20 nM and the Emax was greater than 70%. The CLint scaled at 0.5 μM in data set [1] (human, liver microsomes) is 5 to 50 L/h/kg.
Turning to `COc1nc(NC2CCCCC2)c(F)cc1CNC(=O)[C@@H]1CCCN1` [Example 131, (2S)—N-[[6-(Cyclohexylamino)-5-fluoro-2-methoxy-3-pyridyl]methyl]pyrrolidine-2-carboxamide], at 5-HT2C receptor, the EC50 was less than 20 nM and the maximal response (Emax) was greater than 70%. The CLint scaled at 0.5 μM in data set [1] (human, liver microsomes) was 5 to 50 L/h/kg.
For `COc1nc(C2CCCCC2)c(F)cc1CNC(=O)[C@@H]1CCCN1` [Example 132, (2S)—N-[(6-Cyclohexyl-5-fluoro-2-methoxy-3-pyridyl)methyl]pyrrolidine-2-carboxamide; 2,2,2-trifluoroacetic Acid], in that order: less than 20 nM, greater than 70% and 50 to 500 L/h/kg.
The matching figures for `COc1nc(N2CCC(C(F)(F)F)CC2)c(F)cc1CNC(=O)[C@@H]1CCCN1` [Example 133, (2S)—N-[[5-Fluoro-2-methoxy-6-[4-(trifluoromethyl)-1-piperidyl]-3-pyridyl]methyl]pyrrolidine-2-carboxamide; 2,2,2-trifluoroacetic Acid]: less than 20 nM, greater than 70% and 5 to 50 L/h/kg.
For `COc1nc(N2CCC(F)(F)CC2)c(F)cc1CNC(=O)[C@@H]1CCCN1` [Example 134, (2S)—N-[[6-(4,4-Difluoro-1-piperidyl)-5-fluoro-2-methoxy-3-pyridyl]methyl]-pyrrolidine-2-carboxamide; 2,2,2-trifluoroacetic Acid], in that order: less than 20 nM, greater than 70% and less than 5 L/h/kg.
As for `COc1nc(NCC2CC(F)(F)C2)c(F)cc1CNC(=O)[C@@H]1CCCN1` [Example 136, (2S)—N-[[6-[(3,3-Difluorocyclobutyl)methylamino]-5-fluoro-2-methoxy-3-pyridyl]methyl]pyrrolidine-2-carboxamide; 2,2,2-trifluoroacetic Acid], on 5-HT2C receptor, the concentration for a half-maximal effect (EC50) is less than 20 nM and the maximal effect (Emax) is greater than 70%. The CLint scaled at 0.5 μM in data set [1] (human, liver microsomes) was less than 5 L/h/kg.
For the molecule `COc1nc(N(C)CCc2ccccc2)c(F)cc1CNC(=O)[C@@H]1CCCN1` [Example 137, (2S)—N-[[5-Fluoro-2-methoxy-6-[methyl(phenethyl)amino]-3-pyridyl]methyl]-pyrrolidine-2-carboxamide Hydrochloride], at 5-HT2C receptor, the concentration for a half-maximal effect (EC50) fell in the range of 200 to 1000 nM and the maximum response (Emax) was greater than 70%. Also, the CLint scaled at 0.5 μM in data set [1] (human, liver microsomes) was 50 to 500 L/h/kg.
Consider `COc1nc(N2CCc3ccccc32)c(F)cc1CNC(=O)[C@@H]1CCCN1` [Example 138, (2S)—N-[(5-Fluoro-6-indolin-1-yl-2-methoxy-3-pyridyl)methyl]pyrrolidine-2-carboxamide Hydrochloride], for which, on 5-HT2C receptor, the EC50 is 200 to 1000 nM and the Emax was greater than 70%. In addition, the CLint scaled at 0.5 μM in data set [1] (human, liver microsomes) lay in the range of 5 to 50 L/h/kg.
For `COc1nc(C2CC2C(F)(F)F)c(F)cc1CNC(=O)[C@@H]1CCCN1` (stereo partly drawn) [Example 139, (2S)—N-[[5-fluoro-2-methoxy-6-[2-(trifluoromethyl)cyclopropyl]-3-pyridyl]methyl]pyrrolidine-2-carboxamide; 2,2,2-trifluoroacetic Acid], in that order: 200 to 1000 nM, 30 to 50% and 5 to 50 L/h/kg.
For `COc1nc(C2=CCC(C(F)(F)F)CC2)c(F)cc1CNC(=O)[C@@H]1CCCN1` (stereo partly drawn) [Example 140, (2S)—N-[[5-Fluoro-2-methoxy-6-[4-(trifluoromethyl)cyclohexen-1-yl]-3-pyridyl]methyl]pyrrolidine-2-carboxamide], in that order: less than 20 nM, greater than 70% and 5 to 50 L/h/kg.
Consider `COc1nc(N[C@H]2CC[C@@H](C(F)(F)F)CC2)c(F)cc1CNC(=O)[C@@H]1CCCN1` [Example 141, (2S)—N-[[5-Fluoro-2-methoxy-6-[[cis-4-(trifluoromethyl)cyclohexyl]amino]-3-pyridyl]methyl]pyrrolidine-2-carboxamide], for which, on 5-HT2C receptor, the concentration for a half-maximal effect (EC50) was less than 20 nM and the Emax is greater than 70%. Besides, in data set [1] (human liver microsomes 0.25 mg/mL), the “Cl int, mic unb. (h) [l/h/kg] (unbound intrinsic clearance, human)” value is “+ (from 50 to 500 l/h/kg)”.
